The source of these data is patent US20230265116A1, “DEGRADATION OF (EGFR) BY CONJUGATION OF EGFR INHIBITORS WITH E3 LIGASE LIGAND AND METHODS OF USE” (BEIGENE, LTD., priority 2020, published 2023).

The assay deals with T1, EGFR (HCC827 cells) (Homo sapiens, UniProt P00533, DEL746-750).
T1 construct: endogenous in cells; host or cells: HCC827
The assay can be described thus: EGFR degradation HTRF assay, HCC827 cells. It counts as cell-based. Particulars: HCC827, 16h treatment; for Dmax: maximum percentage of degradation. On the procedure:
BaF3 WT(wild type), BaF3-LTC(L858R/T790M/C797S) and BaF3-DTC(Del19/T790M/C797S) cells are treated with compounds diluted in 0.2% DMSO cell culture medium and incubate for 16h, 37° C., 5% CO2, H1975-#36, H1975-#28, H1975-#23 and HCC827 cells are treated with compounds diluted in 0.2% DMSO cell culture medium on day 2, incubate for 16h, 37° C., 5% CO2.the final concentriation of compounds in all assay is start with 10 uM, 5-fold dilution, total 8 doses were included.
After 16h treatment, add HTRF lysis buffer to each well; seal the plate and incubate 1 hour at room temperature on a plate shaker; Once the cells are lysed, 16 μL of cell lysate are transferred to a PE 384-well HTRF detection plate; 4 μL of pre-mixed HTRF antibodies are added to each well; Cover the plate with a plate sealer, spin 1000 rpm for 1 min, Incubate overnight at room temperature; Read on BMG PheraStar with HTRF protocol (337 nm-665 nm-620 nm).
The inhibition (degradation) percentage of the compound was calculated by the following equation: Inhibition percentage of Compound=100-100×(Signal-low control)/(High control-low control), wherein signal=each test compound group
High control=Cell group with added DMSO and without compound, indicating microplate readings without EGFR degradation;
Dmax is the maximum percentage of inhibition (degradation).
The IC50 (DC50) value of a compound can be obtained by fitting the following equation
Y=Bottom+(TOP−Bottom)/(1+((IC50/X)^hillslope))
Wherein, X and Y are known values, and IC50, Hillslope, Top and Bottom are the parameters obtained by fitting with software. Y is the inhibition percentage (calculated from the equation), X is the concentration of the compound; IC50 is the concentration of the compound when the 50% inhibition is reached. The smaller the IC50 value is, the stronger the inhibitory ability of the compound is. Vice versa, the higher the IC50 value is, the weaker the inhibitory ability of the compound is; Hillslope represents the slope of the fitted curve, generally around 1*; Bottom represents the minimum value of the curve obtained by data fitting, which is generally 0%±20%; Top represents the maximum value of the curve obtained by data fitting, which is generally 100%±20%. The experimental data were fitted by calculating and analyzing with Dotmatics data analysis software.
For orientation: In TR-FRET formats the signal depends on donor and acceptor labels being close together.

T1 sequence (P00533 with tags, fused parts or gaps DEL746-750): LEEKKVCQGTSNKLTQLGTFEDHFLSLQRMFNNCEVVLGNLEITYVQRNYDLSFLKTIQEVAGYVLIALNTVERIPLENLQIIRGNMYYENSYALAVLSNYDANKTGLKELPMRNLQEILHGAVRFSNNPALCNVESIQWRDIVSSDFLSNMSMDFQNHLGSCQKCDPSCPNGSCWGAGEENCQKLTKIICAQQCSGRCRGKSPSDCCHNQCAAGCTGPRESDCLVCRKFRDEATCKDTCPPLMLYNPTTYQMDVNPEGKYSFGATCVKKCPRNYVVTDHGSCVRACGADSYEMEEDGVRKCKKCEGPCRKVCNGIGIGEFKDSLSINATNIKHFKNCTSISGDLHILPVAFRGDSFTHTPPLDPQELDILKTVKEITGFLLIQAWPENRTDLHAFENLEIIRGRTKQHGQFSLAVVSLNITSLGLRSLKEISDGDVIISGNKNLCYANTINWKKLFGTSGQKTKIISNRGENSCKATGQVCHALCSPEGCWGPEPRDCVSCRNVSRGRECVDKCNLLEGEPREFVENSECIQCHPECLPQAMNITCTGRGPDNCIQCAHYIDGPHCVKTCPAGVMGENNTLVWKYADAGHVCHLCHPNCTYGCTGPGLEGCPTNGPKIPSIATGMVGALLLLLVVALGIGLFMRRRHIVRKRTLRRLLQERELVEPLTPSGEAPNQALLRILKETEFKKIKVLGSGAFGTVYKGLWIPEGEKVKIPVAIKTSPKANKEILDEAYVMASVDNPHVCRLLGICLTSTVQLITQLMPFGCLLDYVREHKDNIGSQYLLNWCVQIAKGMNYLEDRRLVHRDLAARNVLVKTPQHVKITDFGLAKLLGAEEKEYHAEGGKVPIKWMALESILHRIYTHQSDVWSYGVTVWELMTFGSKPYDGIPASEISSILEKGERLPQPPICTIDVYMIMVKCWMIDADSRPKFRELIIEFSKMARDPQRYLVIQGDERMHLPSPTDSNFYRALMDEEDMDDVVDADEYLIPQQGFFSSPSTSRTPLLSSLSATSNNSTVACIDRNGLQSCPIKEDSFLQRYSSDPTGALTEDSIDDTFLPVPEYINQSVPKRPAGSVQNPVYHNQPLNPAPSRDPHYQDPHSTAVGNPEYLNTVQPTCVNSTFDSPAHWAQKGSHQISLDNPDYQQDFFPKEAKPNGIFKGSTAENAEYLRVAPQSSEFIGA

`COc1cc(N2CCC(N3CCN(CCc4ccc(CN5CCC(=O)NC5=O)cc4)CC3)CC2)ccc1Nc1ncc(Cl)c(Nc2ccccc2P(C)(C)=O)n1` [Example 111, 1-(4-(2-(4-(1-(4-((5-chloro-4-((2-(dimethylphosphoryl)phenyl)amino)pyrimidin-2-yl)amino)-3-methoxyphenyl)piperidin-4-yl)piperazin-1-yl)ethyl)benzyl)dihydropyrimidine-2,4(1H,3H)-dione] displayed a DC50 of 0.112 µM and a Dmax of 81.1%.

Compound `COc1cc(N2CCC(N3CCN(C(=O)CCCCN4CCN(c5ccc6c(c5)C(=O)N(C5CCC(=O)NC5=O)C6=O)CC4)CC3)CC2)ccc1Nc1ncc(Cl)c(Nc2ccccc2P(C)(C)=O)n1` (stereo not drawn) [Example 114, 5-(4-(5-(4-(1-(4-((5-chloro-4-((2-(dimethylphosphoryl)phenyl)amino)pyrimidin-2-yl)amino)-3-methoxyphenyl)piperidin-4-yl)piperazin-1-yl)-5-oxopentyl)piperazin-1-yl)-2-(2,6-dioxopiperidin-3-yl)isoindoline-1,3-dione] registered a DC50 of 0.00823 µM and a Dmax of 82.4%.

`COc1cc(N2CCC(N3CCN(CCC4CCN(c5ccc(C6CCC(=O)NC6=O)cc5)CC4)CC3)CC2)ccc1Nc1ncc(Cl)c(Nc2ccccc2N(C)S(C)(=O)=O)n1` (stereo not drawn) [Example 121, N-(2-((5-chloro-2-((4-(4-(4-(2-(1-(4-(2,6-dioxopiperidin-3-yl)phenyl)piperidin-4-yl)ethyl)piperazin-1-yl)piperidin-1-yl)-2-methoxyphenyl)amino)pyrimidin-4-yl)amino)phenyl)-N-methylmethanesulfonamide]: the DC50 was 0.019 µM and the Dmax amounted to 80.8%.

For the compound `COc1cc(N2CCC(N3CCN(C(=O)CC4CCN(c5ccc(C6CCC(=O)NC6=O)cc5)CC4)CC3)CC2)ccc1Nc1ncc(Cl)c(Nc2ccccc2N(C)S(C)(=O)=O)n1` (stereo not drawn) [Example 122, N-(2-((5-chloro-2-((4-(4-(4-(2-(1-(4-(2,6-dioxopiperidin-3-yl)phenyl)piperidin-4-yl)acetyl)piperazin-1-yl)piperidin-1-yl)-2-methoxyphenyl)amino)pyrimidin-4-yl)amino)phenyl)-N-methylmethanesulfonamide], half-maximal degradation (DC50) was put at 0.00637 µM and the Dmax was found to be 69.2%.

Turning to `COc1cc(N2CCC(N3CCN(CCc4ccc(N5CCC(=O)NC5=O)cc4)CC3)CC2)ccc1Nc1ncc(Cl)c(Nc2ccccc2N(C)S(C)(=O)=O)n1` [Example 124, N-(2-((5-chloro-2-((4-(4-(4-(4-(2,4-dioxotetrahydropyrimidin-1(2H)-yl)phenethyl)piperazin-1-yl)piperidin-1-yl)-2-methoxyphenyl)amino)pyrimidin-4-yl)amino)phenyl)-N-methylmethanesulfonamide], the DC50 is 0.0816 µM and the Dmax amounted to 80.8%.

In the case of `COc1cc(N2CCC(N3CCN(C(=O)CN4CCN(c5ccc6c(c5)C(=O)N(C5CCC(=O)NC5=O)C6)CC4)CC3)CC2)ccc1Nc1ncc(Cl)c(Nc2ccccc2N(C)S(C)(=O)=O)n1` (stereo not drawn) [Example 130, N-(2-((5-chloro-2-((4-(4-(4-(2-(4-(2-(2,6-dioxopiperidin-3-yl)-3-oxoisoindolin-5-yl)piperazin-1-yl)acetyl)piperazin-1-yl)piperidin-1-yl)-2-methoxyphenyl)amino)pyrimidin-4-yl)amino)phenyl)-N-methylmethanesulfonamide], the DC50 was 0.0458 µM and the Dmax came to 80.8%.

For `COc1cc(N2CCC(NCCCCCc3ccc(C4CCC(=O)NC4=O)cc3)CC2)ccc1Nc1ncc(Cl)c(Nc2ccccc2N(C)S(C)(=O)=O)n1` (stereo not drawn) [Example 131, N-(2-((5-chloro-2-((4-(4-((5-(4-(2,6-dioxopiperidin-3-yl)phenyl)pentyl)amino)piperidin-1-yl)-2-methoxyphenyl)amino)pyrimidin-4-yl)amino)phenyl)-N-methylmethanesulfonamide], it took 0.0683 µM to reach half-maximal degradation (DC50) and the Dmax came out at 80.1%.

Consider `COc1cc(N2CCC(NCCCCCCCc3ccc(C4CCC(=O)NC4=O)cc3)CC2)ccc1Nc1ncc(Cl)c(Nc2ccccc2N(C)S(C)(=O)=O)n1` (stereo not drawn) [Example 132, N-(2-((5-chloro-2-((4-(4-((7-(4-(2,6-dioxopiperidin-3-yl)phenyl)heptyl)amino)piperidin-1-yl)-2-methoxyphenyl)amino)pyrimidin-4-yl)amino)phenyl)-N-methylmethanesulfonamide], for which the DC50 is 0.034 µM and the Dmax turned out to be 80%.

As to `COc1cc(N2CCN(CCc3ccc(C4CCC(=O)NC4=O)cc3)CC2)ccc1Nc1ncc(Cl)c(Nc2ccccc2N(C)S(C)(=O)=O)n1` (stereo not drawn) [Example 133, N-(2-((5-chloro-2-((4-(4-(4-(2,6-dioxopiperidin-3-yl)phenethyl)piperazin-1-yl)-2-methoxyphenyl)amino)pyrimidin-4-yl)amino)phenyl)-N-methylmethanesulfonamide], half-maximal degradation (DC50) was put at 0.0391 µM and the Dmax was 78.2%.

Turning to `CN(c1ccccc1Nc1nc(Nc2ccc(N3CC4(CN(CCc5ccc(C6CCC(=O)NC6=O)cc5)C4)C3)c(F)c2)ncc1Cl)S(C)(=O)=O` (stereo not drawn) [Example 134, N-(2-((5-chloro-2-((4-(6-(4-(2,6-dioxopiperidin-3-yl)phenethyl)-2,6-diazaspiro[3.3]heptan-2-yl)-3-fluorophenyl)amino)pyrimidin-4-yl)amino)phenyl)-N-methylmethanesulfonamide], the half-maximal degradation concentration (DC50) is 0.038 µM and the Dmax is 77.6%.

The compound `CN(c1ccccc1Nc1nc(Nc2ccc(N3CC4(CN(CCc5ccc(NC6CCC(=O)NC6=O)cc5)C4)C3)c(F)c2)ncc1Cl)S(C)(=O)=O` (stereo not drawn) [Example 136, N-(2-((5-chloro-2-((4-(6-(4-((2,6-dioxopiperidin-3-yl)amino)phenethyl)-2,6-diazaspiro[3.3]heptan-2-yl)-3-fluorophenyl)amino)pyrimidin-4-yl)amino)phenyl)-N-methylmethanesulfonamide] displayed a DC50 of 0.0685 µM and a Dmax of 79.5%.

As to `CN(c1ccccc1Nc1nc(Nc2ccc(N3CC4(CN(C(=O)C5CCN(CC6CCN(c7ccc8c(c7)C(=O)N(C7CCC(=O)NC7=O)C8=O)CC6)CC5)C4)C3)c(F)c2)ncc1Cl)S(C)(=O)=O` (stereo not drawn) [Example 137, N-(2-((5-chloro-2-((4-(6-(1-((1-(2-(2,6-dioxopiperidin-3-yl)-1,3-dioxoisoindolin-5-yl)piperidin-4-yl)methyl)piperidine-4-carbonyl)-2,6-diazaspiro[3.3]heptan-2-yl)-3-fluorophenyl)amino)pyrimidin-4-yl)amino)phenyl)-N-methylmethanesulfonamide], the DC50 amounted to 0.00941 µM and the Dmax came to 92.5%.

Consider `COc1cc(N2CCC(N3CCN(CCC4CCN(c5ccc(N6CCC(=O)NC6=O)cc5)CC4)CC3)CC2)ccc1Nc1ncc(Cl)c(Nc2ccccc2NS(C)(=O)=O)n1` [Example 139, N-(2-((5-chloro-2-((4-(4-(4-(2-(1-(4-(2,4-dioxotetrahydropyrimidin-1(2H)-yl)phenyl)piperidin-4-yl)ethyl)piperazin-1-yl)piperidin-1-yl)-2-methoxyphenyl)amino)pyrimidin-4-yl)amino)phenyl) methanesulfonamide], for which it took 0.0536 µM to reach half-maximal degradation (DC50) and the Dmax is 75.7%.

Compound `COc1cc(N2CCC(N3CCN(C(=O)CCCCN4CCN(c5ccc6c(c5)C(=O)N(C5CCC(=O)NC5=O)C6=O)CC4)CC3)CC2)ccc1Nc1ncc(Cl)c(Nc2ccccc2NS(C)(=O)=O)n1` (stereo not drawn) [Example 141, N-(2-((5-chloro-2-((4-(4-(4-(5-(4-(2-(2,6-dioxopiperidin-3-yl)-1,3-dioxoisoindolin-5-yl)piperazin-1-yl)pentanoyl)piperazin-1-yl)piperidin-1-yl)-2-methoxyphenyl)amino)pyrimidin-4-yl)amino)phenyl)methanesulfonamide] gave a DC50 of 0.0192 µM and a Dmax of 82%.

In the case of `COc1cc(N2CCC(N3CCN(C(=O)C4CCN(CC5CCN(c6ccc7c(c6)C(=O)N(C6CCC(=O)NC6=O)C7=O)CC5)CC4)CC3)CC2)ccc1Nc1ncc(Cl)c(Nc2ccccc2NS(C)(=O)=O)n1` (stereo not drawn) [Example 142, N-(2-((5-chloro-2-((4-(4-(4-(1-((1-(2-(2,6-dioxopiperidin-3-yl)-1,3-dioxoisoindolin-5-yl)piperidin-4-yl)methyl)piperidine-4-carbonyl)piperazin-1-yl)piperidin-1-yl)-2-methoxyphenyl)amino)pyrimidin-4-yl)amino)phenyl)methanesulfonamide], the DC50 amounted to 0.00622 µM and the Dmax came to 89.4%.

As a reminder, the DC50 is the midpoint of the concentration-degradation curve. The low end stands for degradation at low concentration, the high end for degradation only at high concentration. A word on the Dmax: it is the largest share of the target that was removed. Low readings indicate shallow degradation, high ones deep degradation.
